Reference: publication PMC8844836 (Journal of molecular neuroscience : MN, 2020)
Entries after “also recorded” stand apart in the source; their conditions may differ.

What was measured:
HER2 = details: NSCLC cells ref Moody et al., 2019; cited from earlier work
HER3 [1] = experiment: HER3 tyrosine phosphorylation, Western blot, Calu-3 cells; type: cell-based; details: for effect of ROS inhibitors on HER3 transactivation, statistics: Fig. 4B, mean ± S.D. of 3 experiments, relative to PACAP by ANOVA; for effect of ROS inhibitors on PACAP-induced HER3 tyrosine phosphorylation: Western blot (Fig. 4A), 3 experiments
EGFR = details: NSCLC cells ref Moody et al., 2019; cited from earlier work
PAC1 (Calu-3 cells) = target: T1, PAC1 (Calu-3 cells) (Homo sapiens, UniProt P41586); experiment: cell-based
T1 sequence (P41586 21-468): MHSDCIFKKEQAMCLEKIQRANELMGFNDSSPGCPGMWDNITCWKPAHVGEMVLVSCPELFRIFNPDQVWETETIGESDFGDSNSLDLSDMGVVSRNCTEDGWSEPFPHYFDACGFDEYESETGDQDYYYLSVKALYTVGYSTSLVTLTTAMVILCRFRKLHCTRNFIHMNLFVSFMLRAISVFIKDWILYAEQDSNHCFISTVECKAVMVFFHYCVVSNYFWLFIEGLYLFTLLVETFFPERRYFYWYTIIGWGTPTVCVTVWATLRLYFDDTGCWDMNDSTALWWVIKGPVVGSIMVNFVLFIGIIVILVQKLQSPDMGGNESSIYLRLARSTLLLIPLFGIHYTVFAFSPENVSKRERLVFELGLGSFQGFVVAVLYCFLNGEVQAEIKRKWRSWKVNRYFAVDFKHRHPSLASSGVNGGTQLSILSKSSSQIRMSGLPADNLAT

NSCLC cells = experiment: Proliferation of NSCLC cells; type: cell-based
Calu-3 cells = experiment: Clonogenic assay, Calu-3 cells; type: cell-based
HER3 [2] = details: NSCLC cells ref Lee et al., 2020; cited from earlier work
HER3 [3] = experiment: HER3 tyrosine phosphorylation, NSCLC cells; type: cell-based
ERK = ERK phosphorylation, Western blot, Calu-3 cells; type: cell-based

c1ccc2c(c1)[I+]c1ccccc1-2 [DPI, diphenylene iodonium]
effect on PACAP-induced HER2 tyrosine phosphorylation (ROS inhibitors) (HER2): inhibited
effect of ROS inhibitors on HER3 transactivation, statistics (HER3 [1]): not DPI impaired significantly
effect of ROS inhibitors on PACAP-induced HER3 tyrosine phosphorylation (HER3 [1]): weakly
effect on PACAP-induced EGFR tyrosine phosphorylation (ROS inhibitors) (EGFR): inhibited

CC(=O)N[C@@H](CS)C(=O)O [N-acetyl cysteine]
effect on PACAP-induced HER2 tyrosine phosphorylation (ROS inhibitors) (HER2): inhibited
effect of ROS inhibitors on HER3 transactivation, statistics (HER3 [1]; listed as NAC): significantly impair; also recorded: impaired significantly
effect of ROS inhibitors on PACAP-induced HER3 tyrosine phosphorylation (HER3 [1]): strongly inhibited
effect on PACAP-induced EGFR tyrosine phosphorylation (ROS inhibitors) (EGFR): inhibited

CSCC[C@H](NC(=O)[C@H](CCC(N)=O)NC(=O)[C@H](CCCCN)NC(=O)[C@H](CCCNC(=N)N)NC(=O)[C@H](Cc1ccc(O)cc1)NC(=O)[C@H](CCCNC(=N)N)NC(=O)[C@H](CO)NC(=O)[C@H](Cc1ccc(O)cc1)NC(=O)[C@H](CO)NC(=O)[C@H](CC(=O)O)NC(=O)[C@@H](NC(=O)[C@@H](N)Cc1ccccc1)[C@@H](C)O)C(=O)N[C@@H](C)C(=O)N[C@H](C(=O)N[C@@H](CCCCN)C(=O)N[C@@H](CCCCN)C(=O)N[C@@H](Cc1ccc(O)cc1)C(=O)N[C@@H](CC(C)C)C(=O)N[C@@H](C)C(=O)N[C@@H](C)C(=O)N[C@H](C(=O)N[C@@H](CC(C)C)C(=O)NCC(=O)N[C@@H](CCCCN)C(=O)N[C@@H](CCCNC(=N)N)C(=O)N[C@@H](Cc1ccc(O)cc1)C(=O)N[C@@H](CCCCN)C(=O)N[C@@H](CCC(N)=O)C(=O)N[C@@H](CCCNC(=N)N)C(=O)N[C@H](C(=O)N[C@@H](CCCCN)C(=O)N[C@@H](CC(N)=O)C(=O)N[C@@H](CCCCN)C(N)=O)C(C)C)C(C)C)C(C)C [PACAP(6–38)]
IC50 (PAC1 (Calu-3 cells)): 31.4 ± 4.9 nM

O=S(=O)(O)c1cc(O)c(O)c(S(=O)(=O)O)c1 [Tiron]
effect on PACAP-induced HER2 tyrosine phosphorylation (ROS inhibitors) (HER2): inhibited
effect of ROS inhibitors on HER3 transactivation, statistics (HER3 [1]): significantly impair
effect of ROS inhibitors on HER3 transactivation, statistics (HER3 [1]; listed as Tir): impaired significantly
effect of ROS inhibitors on PACAP-induced HER3 tyrosine phosphorylation (HER3 [1]): strongly inhibited
effect on PACAP-induced EGFR tyrosine phosphorylation (ROS inhibitors) (EGFR): inhibited

COc1cc2ncnc(Nc3ccc(F)c(Cl)c3)c2cc1OCCCN1CCOCC1 [gefitinib]
proliferation of NSCLC cells (NSCLC cells): inhibited proliferation
effect on PACAP-27-induced increase in colony number (Calu-3 cells; 100 nM PACAP-27): impaired
Colony number, + PACAP (Calu-3 cells; with 100 nM PACAP-27, PACAP(6–38) 5 μM, gefitinib 1 μM, trastuzumab 0.1 μg/ml, mAb3481 0.1 μg/ml, mean ± S.D. of 3 determinations): 43 ± 5

Bombesin
HER3 tyrosine phosphorylation (HER3 [2]): increases HER3 tyrosine phosphorylation

neuregulin (NRG)-1 [NRG-1]
HER3 tyrosine phosphorylation, NSCLC cells (HER3 [3]): increased HER3 tyrosine phosphorylation
ERK phosphorylation, densitometry statistics, 2, 5, 10 and 30 min (ERK; Fig. 2D, NRG-1 1 μg/ml, 2, 5, 10 and 30 min): significantly increased
ERK phosphorylation, 5, 10 and 30 min (ERK; PACAP-27 1000 nM or NRG-1 1 μg/ml, 5, 10 and 30 min): moderate
ERK phosphorylation, 2 min (ERK; PACAP-27 1000 nM or NRG-1 1 μg/ml, 2 min): weakly stimulates
proliferation of NSCLC cells (NSCLC cells): increased the proliferation
HER3 phosphorylation, 5, 10 and 30 min (HER3 [1]; Calu-3, PACAP-27 1000 nM or NRG-1 1 μg/ml, 5, 10 and 30 min): moderate
HER3 phosphorylation, 2 min (HER3 [1]; Calu-3, PACAP-27 1000 nM or NRG-1 1 μg/ml, 2 min): weakly stimulates
HER3 phosphorylation, densitometry statistics, 2, 5, 10 and 30 min (HER3 [1]; Fig. 2D, NRG-1 1 μg/ml, Calu-3, 2, 5, 10 and 30 min): significantly increased
increase in colony number (Calu-3 cells; NRG-1 0.1 μg/ml, PACAP-27 100 nM, 2 weeks): 33%
